Experimental data from US9738634B2, “Heterocyclic amide compound and herbicide” (SYNGENTA PARTICIPATIONS AG, priority 2013, dated 2017).

How the values were obtained:
Assay type in all cases: in vivo
Conditions in all cases: treatment dosage 320 g/ha
catchweed [1] = assay: Test Example 4: weedkilling efficacy by foliar treatment; O: catchweed
Summary of the method: (§1)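 Seeds are spot-sown into sterilized diluvial soil and covered with about 1.5 cm of soil. After 14 days' greenhouse growth at 25 to 30° C, plants are sprayed on stems and leaves with diluted emulsion at the stated g/ha rate, then scored at 3 weeks.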

bulrush [2] = assay: Test Example 2: weedkilling efficacy, growth period weed treatment in the submerged state; B: bulrush
Summary of the method: (§2)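 Weeds treated at the 1-2 leaf stage by application of diluted emulsion onto floodwater (4 cm depth, alluvial soil) at specified g/ha. Grown in greenhouse at 25 to 30° C; herbicidal effect rated three weeks after treatment.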

barnyard grass [3] = assay: Test Example 4: weedkilling efficacy by foliar treatment; F: barnyard grass
Summary of the method: as §1

black-grass [4] = assay: Test Example 4: weedkilling efficacy by foliar treatment; H: black-grass
Summary of the method: as §1

green foxtail [5] = assay: Test Example 3: weedkilling efficacy through soil treatment; E: green foxtail
Summary of the method: (§3)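 Crop and weed responses were judged three weeks after a uniform surface spray of the water-diluted emulsion at the given g/ha rate. Seeds sat beneath about 1.5 cm of sterilized diluvial soil, and boxes stood in a greenhouse at 25 to 30° C.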

Indian mallow [6] = assay: Test Example 3: weedkilling efficacy through soil treatment; K: Indian mallow
Summary of the method: as §3

soybean [7] = assay: Test Example 4: foliar treatment, effect on crop; d: soybean
Summary of the method: as §1

barnyard grass [8] = assay: Test Example 3: weedkilling efficacy through soil treatment; F: barnyard grass
Summary of the method: as §3

wild oat [9] = assay: Test Example 4: weedkilling efficacy by foliar treatment; G: wild oat
Summary of the method: as §1

black-grass [10] = assay: Test Example 3: weedkilling efficacy through soil treatment; H: black-grass
Summary of the method: as §3

chickweed [11] = assay: Test Example 3: weedkilling efficacy through soil treatment; N: chickweed
Summary of the method: as §3

beet [12] = assay: Test Example 3: soil treatment, effect on crop; f: beet
Summary of the method: as §3

crabgrass [13] = assay: Test Example 3: weedkilling efficacy through soil treatment; D: crabgrass
Summary of the method: as §3

chickweed [14] = assay: Test Example 4: weedkilling efficacy by foliar treatment; N: chickweed
Summary of the method: as §1

wild oat [15] = assay: Test Example 3: weedkilling efficacy through soil treatment; G: wild oat
Summary of the method: as §3

rapeseed [16] = assay: Test Example 4: foliar treatment, effect on crop; g: rapeseed
Summary of the method: as §1

soybean [17] = assay: Test Example 3: soil treatment, effect on crop; d: soybean
Summary of the method: as §3

barnyard grass [18] = assay: Test Example 1: weedkilling efficacy, preemergent weed treatment in the submerged state; A: barnyard grass
Summary of the method: (§4)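 Pots of alluvial soil were flooded to a 4 cm depth. Mixed weed seeds were sown and 2.5 leaf-stage rice seedlings transplanted. On sowing day, water-diluted emulsion was applied to the water surface (dose in g/ha). After 3 weeks at 25–30 °C, effects were rated.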

directly sown rice [19] = assay: Test Example 4: foliar treatment, effect on crop; b: directly sown rice
Summary of the method: as §1

green foxtail [20] = assay: Test Example 4: weedkilling efficacy by foliar treatment; E: green foxtail
Summary of the method: as §1

wheat [21] = assay: Test Example 4: foliar treatment, effect on crop; e: wheat
Summary of the method: as §1

barnyard grass [22] = assay: Test Example 2: weedkilling efficacy, growth period weed treatment in the submerged state; A: barnyard grass
Summary of the method: as §2

Italian ryegrass [23] = assay: Test Example 4: weedkilling efficacy by foliar treatment; I: Italian ryegrass
Summary of the method: as §1

birds-eye speedwell [24] = assay: Test Example 3: weedkilling efficacy through soil treatment; p: birds-eye speedwell
Summary of the method: as §3

wheat [25] = assay: Test Example 3: soil treatment, effect on crop; e: wheat
Summary of the method: as §3

redroot pigweed [26] = assay: Test Example 3: weedkilling efficacy through soil treatment; L: redroot pigweed
Summary of the method: as §3

fig-leafed goosefoot = assay: Test Example 4: weedkilling efficacy by foliar treatment; M: fig-leafed goosefoot
Summary of the method: as §1

bulrush [27] = assay: Test Example 1: weedkilling efficacy, preemergent weed treatment in the submerged state; B: bulrush
Summary of the method: as §4

oval-leafed pondweed [28] = assay: Test Example 2: weedkilling efficacy, growth period weed treatment in the submerged state; C: oval-leafed pondweed
Summary of the method: as §2

common wind-grass [29] = assay: Test Example 3: weedkilling efficacy through soil treatment; J: common wind-grass
Summary of the method: as §3

corn [30] = assay: Test Example 3: soil treatment, effect on crop; c: corn
Summary of the method: as §3

corn [31] = assay: Test Example 4: foliar treatment, effect on crop; c: corn
Summary of the method: as §1

beet [32] = assay: Test Example 4: foliar treatment, effect on crop; f: beet
Summary of the method: as §1

birds-eye speedwell [33] = assay: Test Example 4: weedkilling efficacy by foliar treatment; p: birds-eye speedwell
Summary of the method: as §1

transplanted rice = assay: Test Example 1: preemergent weed treatment in the submerged state, effect on crop; a: transplanted rice
Summary of the method: as §4

redroot pigweed [34] = assay: Test Example 4: weedkilling efficacy by foliar treatment; L: redroot pigweed
Summary of the method: as §1

common wind-grass [35] = assay: Test Example 4: weedkilling efficacy by foliar treatment; J: common wind-grass
Summary of the method: as §1

Indian mallow [36] = assay: Test Example 4: weedkilling efficacy by foliar treatment; K: Indian mallow
Summary of the method: as §1

crabgrass [37] = assay: Test Example 4: weedkilling efficacy by foliar treatment; D: crabgrass
Summary of the method: as §1

Italian ryegrass [38] = assay: Test Example 3: weedkilling efficacy through soil treatment; I: Italian ryegrass
Summary of the method: as §3

catchweed [39] = assay: Test Example 3: weedkilling efficacy through soil treatment; O: catchweed
Summary of the method: as §3

oval-leafed pondweed [40] = assay: Test Example 1: weedkilling efficacy, preemergent weed treatment in the submerged state; C: oval-leafed pondweed
Summary of the method: as §4

directly sown rice [41] = assay: Test Example 3: soil treatment, effect on crop; b: directly sown rice
Summary of the method: as §3

rapeseed [42] = assay: Test Example 3: soil treatment, effect on crop; g: rapeseed
Summary of the method: as §3

With `CC1=C(c2ccccc2)C(=O)N(C(C)(C)C(=O)Nc2cc(OC(F)F)ccn2)CO1` [B-2-64] the “O (catchweed) weedkilling efficacy grade” value (catchweed [1]) was 4 (weed kill ratio 70% or more, less than 90%), the “B (bulrush) weedkilling efficacy grade” value (bulrush [2]) was 5 (weed kill ratio 90% or more, (practically complete withering)) and the “F (barnyard grass) weedkilling efficacy grade” value (barnyard grass [3]) was 5 (weed kill ratio 90% or more, (practically complete withering)). For the same compound, the “H (black-grass) weedkilling efficacy grade” value (black-grass [4]) was 5 (weed kill ratio 90% or more, (practically complete withering)), the “E (green foxtail) weedkilling efficacy grade” value (green foxtail [5]) was 5 (weed kill ratio 90% or more, (practically complete withering)) and the “K (Indian mallow) weedkilling efficacy grade” value (Indian mallow [6]) was 3 (weed kill ratio 40% or more, less than 70%). The “d (soybean) effect on crop grade” value (soybean [7]) was 4 (weed kill ratio 70% or more, less than 90%), the “F (barnyard grass) weedkilling efficacy grade” value (barnyard grass [8]) was 5 (weed kill ratio 90% or more, (practically complete withering)) and the “G (wild oat) weedkilling efficacy grade” value (wild oat [9]) was 4 (weed kill ratio 70% or more, less than 90%). The “H (black-grass) weedkilling efficacy grade” value (black-grass [10]) was 5 (weed kill ratio 90% or more, (practically complete withering)), the “N (chickweed) weedkilling efficacy grade” value (chickweed [11]) was 4 (weed kill ratio 70% or more, less than 90%) and the “f (beet) effect on crop grade” value (beet [12]) was 4 (weed kill ratio 70% or more, less than 90%). The “D (crabgrass) weedkilling efficacy grade” value (crabgrass [13]) was 5 (weed kill ratio 90% or more, (practically complete withering)), the “N (chickweed) weedkilling efficacy grade” value (chickweed [14]) was 4 (weed kill ratio 70% or more, less than 90%) and the “G (wild oat) weedkilling efficacy grade” value (wild oat [15]) was 3 (weed kill ratio 40% or more, less than 70%). For the same compound, the “g (rapeseed) effect on crop grade” value (rapeseed [16]) was 4 (weed kill ratio 70% or more, less than 90%), the “d (soybean) effect on crop grade” value (soybean [17]) was 0 (weed kill ratio 5% or less (practically no effect)) and the “A (barnyard grass) weedkilling efficacy grade” value (barnyard grass [18]) was 5 (weed kill ratio 90% or more, (practically complete withering)). For the same compound, the “b (directly sown rice) effect on crop grade” value (directly sown rice [19]) was 4 (weed kill ratio 70% or more, less than 90%), the “E (green foxtail) weedkilling efficacy grade” value (green foxtail [20]) was 5 (weed kill ratio 90% or more, (practically complete withering)) and the “e (wheat) effect on crop grade” value (wheat [21]) was 0 (weed kill ratio 5% or less (practically no effect)). The “A (barnyard grass) weedkilling efficacy grade” value (barnyard grass [22]) was 5 (weed kill ratio 90% or more, (practically complete withering)), the “I (Italian ryegrass) weedkilling efficacy grade” value (Italian ryegrass [23]) was 5 (weed kill ratio 90% or more, (practically complete withering)) and the “P (birds-eye speedwell) weedkilling efficacy grade” value (birds-eye speedwell [24]) was 5 (weed kill ratio 90% or more, (practically complete withering)). The “e (wheat) effect on crop grade” value (wheat [25]) was 0 (weed kill ratio 5% or less (practically no effect)), the “L (redroot pigweed) weedkilling efficacy grade” value (redroot pigweed [26]) was 4 (weed kill ratio 70% or more, less than 90%) and the “M (fig-leafed goosefoot) weedkilling efficacy grade” value (fig-leafed goosefoot) was 4 (weed kill ratio 70% or more, less than 90%). For the same compound, the “B (bulrush) weedkilling efficacy grade” value (bulrush [27]) was 5 (weed kill ratio 90% or more, (practically complete withering)), the “C (oval-leafed pondweed) weedkilling efficacy grade” value (oval-leafed pondweed [28]) was 5 (weed kill ratio 90% or more, (practically complete withering)) and the “J (common wind-grass) weedkilling efficacy grade” value (common wind-grass [29]) was 5 (weed kill ratio 90% or more, (practically complete withering)). The “c (corn) effect on crop grade” value (corn [30]) was 1 (weed kill ratio 5% or more, less than 20%), the “c (corn) effect on crop grade” value (corn [31]) was 0 (weed kill ratio 5% or less (practically no effect)) and the “f (beet) effect on crop grade” value (beet [32]) was 4 (weed kill ratio 70% or more, less than 90%). The “P (birds-eye speedwell) weedkilling efficacy grade” value (birds-eye speedwell [33]) was 4 (weed kill ratio 70% or more, less than 90%), the “a (transplanted rice) effect on crop grade” value (transplanted rice) was 4 (weed kill ratio 70% or more, less than 90%) and the “L (redroot pigweed) weedkilling efficacy grade” value (redroot pigweed [34]) was 4 (weed kill ratio 70% or more, less than 90%). The “J (common wind-grass) weedkilling efficacy grade” value (common wind-grass [35]) was 5 (weed kill ratio 90% or more, (practically complete withering)), the “K (Indian mallow) weedkilling efficacy grade” value (Indian mallow [36]) was 4 (weed kill ratio 70% or more, less than 90%) and the “D (crabgrass) weedkilling efficacy grade” value (crabgrass [37]) was 5 (weed kill ratio 90% or more, (practically complete withering)). The “I (Italian ryegrass) weedkilling efficacy grade” value (Italian ryegrass [38]) was 5 (weed kill ratio 90% or more, (practically complete withering)), the “O (catchweed) weedkilling efficacy grade” value (catchweed [39]) was 0 (weed kill ratio 5% or less (practically no effect)) and the “C (oval-leafed pondweed) weedkilling efficacy grade” value (oval-leafed pondweed [40]) was 5 (weed kill ratio 90% or more, (practically complete withering)). For the same compound, the “b (directly sown rice) effect on crop grade” value (directly sown rice [41]) was 4 (weed kill ratio 70% or more, less than 90%) and the “g (rapeseed) effect on crop grade” value (rapeseed [42]) was 3 (weed kill ratio 40% or more, less than 70%).
